Starred links: 1 amine or outer side, 2 acyl side, 3 side chain; linkers in the order of their positions; H or OH if unused. Positions of bridges follow the written chain, without caps; N, C: chain ends. Non-standard residues stand in square brackets, D forms with d. Residues, ends and D or L forms follow the SMILES beside them. *: point of attachment. hPhe(3,5-F2-4-CF3) = N[C@@H](CCc1cc(F)c(C(F)(F)F)c(F)c1)C(=O)O; hPhe(3-Cl-4-CF3) = N[C@@H](CCc1ccc(C(F)(F)F)c(Cl)c1)C(=O)O; X38 = CN([C@@H](Cc1cccc(OC(F)(F)F)c1)C(=O)[*:2])[*:1]; NMePhe(4-CF3) = CN[C@@H](Cc1ccc(C(F)(F)F)cc1)C(=O)O; NMePhe(3,4-F2) = CN[C@@H](Cc1ccc(F)c(F)c1)C(=O)O; NMePhe(3-OMe) = CN[C@@H](Cc1cccc(OC)c1)C(=O)O; NMePhe(4-CN) = CN[C@@H](Cc1ccc(C#N)cc1)C(=O)O; NMePhe(4-Me) = CN[C@@H](Cc1ccc(C)cc1)C(=O)O; NMePhe(3-I) = CN[C@@H](Cc1cccc(I)c1)C(=O)O; NMePhe(4-F) = CN[C@@H](Cc1ccc(F)cc1)C(=O)O; NMePhe(4-I) = CN[C@@H](Cc1ccc(I)cc1)C(=O)O; dβ3hPip = O=C(C[C@H]1CCCCN1[*:1])[*:2]; NMeY = CN[C@@H](Cc1ccc(O)cc1)C(=O)O; NMeI = CC[C@H](C)[C@H](NC)C(=O)O; d(β3hL) = CC(C)C[C@@H](N)CC(=O)O; dNMeF = CN[C@H](Cc1ccccc1)C(=O)O; NMeD = CN[C@@H](CC(=O)O)C(=O)O; NMeL = CN[C@@H](CC(C)C)C(=O)O; NMeA = CN[C@@H](C)C(=O)O; Piperidide = C1CCN(*)CC1; Ac5c = NC1(C(=O)O)CCCC1; Aze = O=C(O)[C@@H]1CCN1; Sar = CNCC(=O)O
biological target: T1, Kras and SOS1 (biotin-tagged human Kras loaded with GDP, His-tagged human SOS1) (Homo sapiens, UniProt P01116, G12D); assay: Protein-protein interaction inhibition between Kras and SOS1 (KrasGl2D-SOS PPI) using AlphaScreen; format: binding; conditions: AlphaScreen; biotin-tagged human Kras loaded with GDP, His-tagged human SOS1; read-out: KRAS G12D-SOS PPI IC50
T1 construct: made in house; host or cells: E. coli (stated for Kras only)
Procedure, shortened: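 Read-out is acceptor-bead light at 520-620 nm, arising when 680 nm-irradiated nickel donor beads pass singlet oxygen to streptavidin acceptors. The bead pair links His-tagged SOS1 with biotin-tagged, GDP-bound Kras from E. coli.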

T1 sequence (P01116 1-188 isoform P01116-2 G12D): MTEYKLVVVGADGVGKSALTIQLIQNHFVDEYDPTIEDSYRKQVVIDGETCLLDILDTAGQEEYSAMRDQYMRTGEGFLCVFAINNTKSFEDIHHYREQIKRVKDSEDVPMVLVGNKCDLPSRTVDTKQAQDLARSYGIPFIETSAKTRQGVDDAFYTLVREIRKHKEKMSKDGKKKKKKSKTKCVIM

Row | Compound | IC50
1 | CC[C@H](C)[C@@H]1NC(=O)[C@H](C)N(C)C(=O)C[C@@H](C(=O)N(C)C)N(C)C(=O)[C@H]([C@@H](C)CC)N(C)C(=O)C2(CCCC2)NC(=O)[C@H](Cc2ccc(OC)cc2)N(C)C(=O)[C@H](CCc2ccc(C(F)(F)F)c(Cl)c2)NC(=O)CN(C)C(=O)[C@H](Cc2ccc(C)cc2)N(C)C(=O)[C@@H]2CCN2C(=O)[C@H](C)N(C)C1=O [Compound 1903] ([NMeA]I[NMeA][Aze][NMePhe(4-Me)][Sar][hPhe(3-Cl-4-CF3)][NMeY](Me)[Ac5c][NMeI][NMeD]-NMe2; lactam N-11) | 4 nM
2 | CC[C@H](C)[C@@H]1NC(=O)[C@H](CC(C)C)N(C)C(=O)C[C@@H](C(=O)N(C)C)N(C)C(=O)[C@H]([C@@H](C)CC)N(C)C(=O)C2(CCCC2)NC(=O)[C@@H](Cc2ccccc2)N(C)C(=O)[C@H](CCc2ccc(C(F)(F)F)c(Cl)c2)NC(=O)CN(C)C(=O)[C@H](Cc2ccc(C)cc2)N(C)C(=O)[C@@H]2CCN2C(=O)[C@H](C)N(C)C1=O [Compound 1909] ([NMeL]I[NMeA][Aze][NMePhe(4-Me)][Sar][hPhe(3-Cl-4-CF3)][dNMeF][Ac5c][NMeI][NMeD]-NMe2; lactam N-11) | 110 nM
3 | CC[C@H](C)[C@@H]1NC(=O)[C@H](CC(C)C)N(C)C(=O)C[C@@H](C(=O)N(C)C)N(C)C(=O)[C@H]([C@@H](C)CC)N(C)C(=O)C2(CCCC2)NC(=O)[C@H](Cc2cccc(I)c2)N(C)C(=O)[C@H](CCc2ccc(C(F)(F)F)c(Cl)c2)NC(=O)CN(C)C(=O)[C@H](Cc2ccc(C)cc2)N(C)C(=O)[C@@H]2CCN2C(=O)[C@H](C)N(C)C1=O [Compound 1910] ([NMeL]I[NMeA][Aze][NMePhe(4-Me)][Sar][hPhe(3-Cl-4-CF3)][NMePhe(3-I)][Ac5c][NMeI][NMeD]-NMe2; lactam N-11) | 60 nM
4 | CC[C@H](C)[C@@H]1NC(=O)[C@H](CC(C)C)N(C)C(=O)C[C@H]2CCCCN2C(=O)[C@H]([C@@H](C)CC)N(C)C(=O)C2(CCCC2)NC(=O)[C@@H]2CCCN2C(=O)[C@H](CCc2ccc(C(F)(F)F)c(Cl)c2)NC(=O)CN(C)C(=O)[C@H](Cc2ccc(C)cc2)N(C)C(=O)[C@@H]2CCN2C(=O)[C@H](C)N(C)C1=O [Compound 1912] (cyclo([Ac5c][NMeI][dβ3hPip][NMeL]I[NMeA][Aze][NMePhe(4-Me)][Sar][hPhe(3-Cl-4-CF3)]P)) | 27 nM
5 | CC[C@H](C)[C@@H]1NC(=O)[C@H](C)N(C)C(=O)C[C@@H](C(=O)N(C)C)N(C)C(=O)[C@H]([C@@H](C)CC)N(C)C(=O)C2(CCCC2)NC(=O)[C@H](Cc2ccc(F)cc2)N(C)C(=O)[C@H](CCc2cc(F)c(C(F)(F)F)c(F)c2)NC(=O)CN(C)C(=O)[C@H](Cc2ccc(C)cc2)N(C)C(=O)[C@@H]2CCN2C(=O)[C@H](C)N(C)C1=O [Compound 1914] ([NMeA]I[NMeA][Aze][NMePhe(4-Me)][Sar][hPhe(3,5-F2-4-CF3)][NMePhe(4-F)][Ac5c][NMeI][NMeD]-NMe2; lactam N-11) | 7.7 nM
6 | CC[C@H](C)[C@@H]1NC(=O)[C@H](CC(C)C)N(C)C(=O)C[C@@H](CC(C)C)NC(=O)[C@H]([C@@H](C)CC)N(C)C(=O)C2(CCCC2)NC(=O)[C@@H]2CCCN2C(=O)[C@H](CCc2cc(F)c(C(F)(F)F)c(F)c2)NC(=O)CN(C)C(=O)[C@H](Cc2ccc(C(F)(F)F)cc2)N(C)C(=O)[C@@H]2CCN2C(=O)[C@H](C)N(C)C1=O [Compound 1918] (cyclo([Ac5c][NMeI][d(β3hL)][NMeL]I[NMeA][Aze][NMePhe(4-CF3)][Sar][hPhe(3,5-F2-4-CF3)]P)) | 280 nM
7 | CC[C@H](C)[C@@H]1NC(=O)[C@H](C)N(C)C(=O)C[C@@H](C(=O)N(C)C)N(C)C(=O)[C@H]([C@@H](C)CC)N(C)C(=O)C2(CCCC2)NC(=O)[C@H](Cc2cccc(OC)c2)N(C)C(=O)[C@H](CCc2ccc(C(F)(F)F)c(Cl)c2)NC(=O)CN(C)C(=O)[C@H](Cc2ccc(C)cc2)N(C)C(=O)[C@@H]2CCN2C(=O)[C@H](C)N(C)C1=O [Compound 1922] ([NMeA]I[NMeA][Aze][NMePhe(4-Me)][Sar][hPhe(3-Cl-4-CF3)][NMePhe(3-OMe)][Ac5c][NMeI][NMeD]-NMe2; lactam N-11) | 3.1 nM
8 | CC[C@H](C)[C@@H]1NC(=O)[C@H](CC(C)C)N(C)C(=O)C[C@@H](C(=O)N(C)C)N(C)C(=O)[C@H]([C@@H](C)CC)N(C)C(=O)C2(CCCC2)NC(=O)[C@H](Cc2ccc(C#N)cc2)N(C)C(=O)[C@H](CCc2ccc(C(F)(F)F)c(Cl)c2)NC(=O)CN(C)C(=O)[C@H](Cc2ccc(C)cc2)N(C)C(=O)[C@@H]2CCN2C(=O)[C@H](C)N(C)C1=O [Compound 1927] ([NMeL]I[NMeA][Aze][NMePhe(4-Me)][Sar][hPhe(3-Cl-4-CF3)][NMePhe(4-CN)][Ac5c][NMeI][NMeD]-NMe2; lactam N-11) | 3.3 nM
9 | CC[C@H](C)[C@@H]1NC(=O)[C@H](CC(C)C)N(C)C(=O)C[C@@H](C(=O)N(C)C)N(C)C(=O)[C@H]([C@@H](C)CC)N(C)C(=O)C2(CCCC2)NC(=O)[C@H](Cc2ccc(OC)cc2)N(C)C(=O)[C@H](CCc2ccc(C(F)(F)F)c(Cl)c2)NC(=O)CN(C)C(=O)[C@H](Cc2ccc(C)cc2)N(C)C(=O)[C@@H]2CCN2C(=O)[C@H](C)N(C)C1=O [Compound 1935] ([NMeL]I[NMeA][Aze][NMePhe(4-Me)][Sar][hPhe(3-Cl-4-CF3)][NMeY](Me)[Ac5c][NMeI][NMeD]-NMe2; lactam N-11) | 11 nM
10 | CC[C@H](C)[C@@H]1NC(=O)[C@H](C)N(C)C(=O)C[C@@H](C(=O)N2CCCCC2)N(C)C(=O)[C@H]([C@@H](C)CC)N(C)C(=O)C2(CCCC2)NC(=O)[C@@H](Cc2ccccc2)N(C)C(=O)[C@H](CCc2ccc(C(F)(F)F)c(Cl)c2)NC(=O)CN(C)C(=O)[C@H](Cc2ccc(C(F)(F)F)cc2)N(C)C(=O)[C@@H]2CCN2C(=O)[C@H](C)N(C)C1=O [Compound 1942] ([NMeA]I[NMeA][Aze][NMePhe(4-CF3)][Sar][hPhe(3-Cl-4-CF3)][dNMeF][Ac5c][NMeI][NMeD]-Piperidide; lactam N-11) | 290 nM
11 | CC[C@H](C)[C@@H]1NC(=O)[C@H](CC(C)C)N(C)C(=O)C[C@@H](C(=O)N(C)C)N(C)C(=O)[C@H]([C@@H](C)CC)N(C)C(=O)C2(CCCC2)NC(=O)[C@H](Cc2ccc(F)c(F)c2)N(C)C(=O)[C@H](CCc2ccc(C(F)(F)F)c(Cl)c2)NC(=O)CN(C)C(=O)[C@H](Cc2ccc(C)cc2)N(C)C(=O)[C@@H]2CCN2C(=O)[C@H](C)N(C)C1=O [Compound 1943] ([NMeL]I[NMeA][Aze][NMePhe(4-Me)][Sar][hPhe(3-Cl-4-CF3)][NMePhe(3,4-F2)][Ac5c][NMeI][NMeD]-NMe2; lactam N-11) | 8 nM
12 | CC[C@H](C)[C@@H]1NC(=O)[C@H](C)N(C)C(=O)C[C@@H](C(=O)N(C)C)N(C)C(=O)[C@H]([C@@H](C)CC)N(C)C(=O)C2(CCCC2)NC(=O)[C@H](Cc2cccc(I)c2)N(C)C(=O)[C@H](CCc2ccc(C(F)(F)F)c(Cl)c2)NC(=O)CN(C)C(=O)[C@H](Cc2ccc(C)cc2)N(C)C(=O)[C@@H]2CCN2C(=O)[C@H](C)N(C)C1=O [Compound 1944] ([NMeA]I[NMeA][Aze][NMePhe(4-Me)][Sar][hPhe(3-Cl-4-CF3)][NMePhe(3-I)][Ac5c][NMeI][NMeD]-NMe2; lactam N-11) | 45 nM
13 | CC[C@H](C)[C@@H]1NC(=O)[C@H](C)N(C)C(=O)C[C@@H](C(=O)N(C)C)N(C)C(=O)[C@H]([C@@H](C)CC)N(C)C(=O)C2(CCCC2)NC(=O)[C@H](Cc2cccc(OC(F)(F)F)c2)N(C)C(=O)[C@H](CCc2ccc(C(F)(F)F)c(Cl)c2)NC(=O)CN(C)C(=O)[C@H](Cc2ccc(C)cc2)N(C)C(=O)[C@@H]2CCN2C(=O)[C@H](C)N(C)C1=O [Compound 1945] ([NMeA]I[NMeA][Aze][NMePhe(4-Me)][Sar][hPhe(3-Cl-4-CF3)][X38][Ac5c][NMeI][NMeD]-NMe2; lactam N-11) | 18 nM
14 | CC[C@H](C)[C@@H]1NC(=O)[C@H](C)N(C)C(=O)C[C@@H](C(=O)N(C)C)N(C)C(=O)[C@H]([C@@H](C)CC)N(C)C(=O)C2(CCCC2)NC(=O)[C@H](Cc2ccc(F)cc2)N(C)C(=O)[C@H](CCc2ccc(C(F)(F)F)c(Cl)c2)NC(=O)CN(C)C(=O)[C@H](Cc2ccc(C(F)(F)F)cc2)N(C)C(=O)[C@@H]2CCN2C(=O)[C@H](C)N(C)C1=O [Compound 1951] ([NMeA]I[NMeA][Aze][NMePhe(4-CF3)][Sar][hPhe(3-Cl-4-CF3)][NMePhe(4-F)][Ac5c][NMeI][NMeD]-NMe2; lactam N-11) | 9.9 nM
15 | CC[C@H](C)[C@@H]1NC(=O)[C@H](CC(C)C)N(C)C(=O)C[C@@H](C(=O)N(C)C)N(C)C(=O)[C@H]([C@@H](C)CC)N(C)C(=O)C2(CCCC2)NC(=O)[C@H](Cc2ccc(F)cc2)N(C)C(=O)[C@H](CCc2cc(F)c(C(F)(F)F)c(F)c2)NC(=O)CN(C)C(=O)[C@H](Cc2ccc(C)cc2)N(C)C(=O)[C@@H]2CCN2C(=O)[C@H](C)N(C)C1=O [Compound 1952] ([NMeL]I[NMeA][Aze][NMePhe(4-Me)][Sar][hPhe(3,5-F2-4-CF3)][NMePhe(4-F)][Ac5c][NMeI][NMeD]-NMe2; lactam N-11) | 8.1 nM
16 | CC[C@H](C)[C@@H]1NC(=O)[C@H](C)N(C)C(=O)C[C@@H](C(=O)N(C)C)N(C)C(=O)[C@H]([C@@H](C)CC)N(C)C(=O)C2(CCCC2)NC(=O)[C@H](Cc2ccc(I)cc2)N(C)C(=O)[C@H](CCc2ccc(C(F)(F)F)c(Cl)c2)NC(=O)CN(C)C(=O)[C@H](Cc2ccc(C)cc2)N(C)C(=O)[C@@H]2CCN2C(=O)[C@H](C)N(C)C1=O [Compound 1953] ([NMeA]I[NMeA][Aze][NMePhe(4-Me)][Sar][hPhe(3-Cl-4-CF3)][NMePhe(4-I)][Ac5c][NMeI][NMeD]-NMe2; lactam N-11) | 51 nM
17 | CC[C@H](C)[C@@H]1NC(=O)[C@H](C)N(C)C(=O)C[C@@H](C(=O)N(C)C)N(C)C(=O)[C@H]([C@@H](C)CC)N(C)C(=O)C2(CCCC2)NC(=O)[C@H](Cc2ccc(C#N)cc2)N(C)C(=O)[C@H](CCc2ccc(C(F)(F)F)c(Cl)c2)NC(=O)CN(C)C(=O)[C@H](Cc2ccc(C)cc2)N(C)C(=O)[C@@H]2CCN2C(=O)[C@H](C)N(C)C1=O [Compound 1959] ([NMeA]I[NMeA][Aze][NMePhe(4-Me)][Sar][hPhe(3-Cl-4-CF3)][NMePhe(4-CN)][Ac5c][NMeI][NMeD]-NMe2; lactam N-11) | 5.2 nM

— patent US12371454B2, “Cyclic peptide compound having Kras inhibitory action” (priority 2019, dated 2025)
